From patent US11124490B2, “Autotaxin inhibitors” (UNIVERSITY OF TENNESSEE RESEARCH FOUNDATION, priority 2016, dated 2021)
Values joined by “and” are separate entries in the source; they are usually repeats but may differ in a detail not shown here. Equal values may be shown once.

What was measured:
[1] = target: T1, human recombinant ATX (Homo sapiens (Human), UniProt Q13822); test: ATX inhibition, hydrolysis of FRET substrate FS-3; type: biochemical; settings: for IC50: 1 μM FS-3, 4 nM human recombinant ATX, 1 hour time point, read-out: IC50 (nM ± SD) vs FS-3
Experimental: (§1) ATX Generation: Human recombinant ATX was expressed as published previously, using Sf9 Spodoptera frugiperda ovary cells (Invitrogen, Carlsbad, Calif.).^13 Suspension cells were grown to a 1 liter quantity at a concentration of 1×10^6 cells/ml in Sf-900 III serum-free medium (Invitrogen) supplemented with 50 U/ml penicillin and 50 μg/ml streptomycin at 27° C. with agitation. Cells were then infected with high-titer baculovirus generated via Bac-to-Bac Baculovirus Expression System (Invitrogen) using the pCMV5 mammalian expression vector containing the C-terminal FLAG-tagged human ATX sequence (a generous gift from Dr. Junken Aoko, ohoku University, Aoba-ku, Sendai, Japan) subcloned into the pFastBacl transfer vector. […] Resultant ATX was then concentrated via centrifugation in Amicon Ultra 30,000 molecular weight cut off filter units (Millipore, Billerica, Mass.) and subsequent buffer exchange into storage buffer comprised of 50 mM Tris, pH 7.4 with 20% (v/v) ethylene glycol. Protein was held at −80° C. for long-term storage.
(§2) ATX Inhibition: ATX activity was assessed via hydrolysis of the synthetic, lipid-like FRET-based substrate FS-3 (Echelon Biosciences, Salt Lake City, Utah) or via hydrolysis of the nucleotide substrate p-nitrophenyl thymidine 5′-monophosphate (pNP-TMP) as described previously.^2 Reaction wells were loaded in 60 μl volumes in triplicate wells of half-area, black-wall 96-well plates in assay buffer consisting of 50 mM Tris, 140 mM NaCl, 5 mM KCl, 1 mM CaCl2, 1 mM MgCl2, […] BSA, pH 8.0. […] Fluorescence was read every 2 minutes for 1 hour at excitation/emission wavelengths of 485/528 nm for FS-3 hydrolysis or 405 nm absorbance for pNP-TMP hydrolysis using a FlexStation 3 microplate reader (Molecular Devices, Sunnyvale, Calif.). Data (relative fluorescence or absorbance) were then recorded as a mean value of the triplicates for each sample versus time. […] In the case of mechanism determination, the linear fluorescence data from time 10 minutes to 30 minutes were then transformed using a carboxyfluorescein standard curve to determine product concentration and plotted separately. Linear trend lines were inserted using Microsoft Excel, the slope of which represent the rates of reaction for each substrate concentration. This reaction rate data for each inhibitor concentration were then plotted against substrate (FS-3) concentration and simultaneously fitted via non-linear regression in the Michaelis-Menten equations for competitive, non-competitive, uncompetitive, and mixed-mode inhibition using GraphPad Prism version 5.0a. Mechanism of inhibition was determined by which curve fit had the best global fit (R^2 value).

[2] = target: T1, human recombinant ATX; test: ATX inhibition, hydrolysis of nucleotide substrate pNP-TMP; type: biochemical; settings: 1 mM pNP-TMP, 4 nM ATX, compound 0 to 1 μM
Experimental: as §1, §2

SMILES: O=C(Nc1c(F)c(F)c(F)c(F)c1F)c1cc(S(=O)(=O)N2CCOCC2)c(Cl)cc1Cl [Compound 3c, 2,4-dichloro-5-(morpholinosulfonyl)-N-(perfluorophenyl)benzamide]
- ATX inhibitory activity (in words) [1]: poorly active
- IC50 [1]: 1030 nM
- pNP-TMP Inhibition [2]: None

SMILES: O=C(Nc1cc(Cl)c(Cl)c(Cl)c1)c1cc(S(=O)(=O)N2CCOCC2)c(Cl)cc1Cl [Compound 3d, 2,4-dichloro-5-(morpholinosulfonyl)-N-(3,4,5-trichlorophenyl)benzamide]
- ATX inhibitory activity (in words) [1]: poorly active
- IC50 [1]: > 1000 nM
- pNP-TMP Inhibition [2]: None

SMILES: COc1cc(NC(=O)c2cc(S(=O)(=O)N3CCOCC3)c(Cl)cc2Cl)cc(OC)c1OC [Compound 3e, 2,4-dichloro-5-(morpholinosulfonyl)-N-(3,4,5-trimethoxyphenyl)benzamide]
- ATX inhibitory activity (in words) [1]: poorly active
- IC50 [1]: > 1000 nM
- pNP-TMP Inhibition [2]: None

SMILES: N#Cc1c(F)cc(NC(=O)c2cc(S(=O)(=O)N3CCOCC3)c(Cl)cc2Cl)cc1F [Compound 3h, 2,4-dichloro-N-(4-cyano-3,5-difluorophenyl)-5-(morpholinosulfonyl)benzamide]
- IC50 [1]: 190 ± 13.1 nM
- pNP-TMP Inhibition [2]: None

SMILES: COC(=O)c1c(F)cc(NC(=O)c2cc(S(=O)(=O)N3CCOCC3)c(Cl)cc2Cl)cc1F [Compound 3i, Methyl 4-(2,4-dichloro-5-(morpholinosulfonyl)benzamido)-2,6-difluorobenzoate]
- IC50 [1]: 864 ± 51.9 nM
- pNP-TMP Inhibition [2]: None

SMILES: O=C(Nc1cc(F)c(C(=O)O)c(F)c1)c1cc(S(=O)(=O)N2CCOCC2)c(Cl)cc1Cl [Compound 4, 4-(2,4-dichloro-5-(morpholinosulfonyl)benzamido)-2,6-difluorobenzoic Acid]
- ATX inhibitory activity (in words) [1]: relatively inactive
- IC50 [1]: > 1000 nM
- pNP-TMP Inhibition [2]: None

SMILES: O=C(Nc1cc(F)c(F)c(F)c1Br)c1cc(S(=O)(=O)N2CCOCC2)c(Cl)cc1Cl [Compound 5, N-(2-bromo-3,4,5-trifluorophenyl)-2,4-dichloro-5-(morpholinosulfonyl)benzamide]
- ATX inhibitory activity (in words) [1]: strong ATX inhibition
- fold IC50 improvement relative to screening hit 918013 [1]: seven fold

SMILES: O=S(=O)(c1cc(-c2nc3cccc(F)c3o2)c(Cl)cc1Cl)N1CCOCC1 [Compound 7, 2-(2,4-dichloro-5-(morpholinosulfonyl)phenyl)-7-fluorobenzo[d]oxazole]
- ATX inhibitory activity (in words) [1]: inactive

SMILES: O=S(=O)(c1cc(-c2nc3cc(F)c(F)cc3[nH]2)c(Cl)cc1Cl)N1CCOCC1 [Compound 8, 4-((2,4-dichloro-5-(5,6-difluoro-1H-benzo[d]imidazol-2-yl)phenyl)sulfonyl)-morpholine]
- ATX inhibitory activity (in words) [1]: inactive

SMILES: CN(C(=O)c1cc(S(=O)(=O)N2CCOCC2)c(Cl)cc1Cl)c1cccc(F)c1 [Compound 9, 2,4-dichloro-N-(3-fluorophenyl)-N-methyl-5-(morpholinosulfonyl)benzamide]
- ATX inhibitory activity (in words) [1]: low activity

SMILES: O=S(=O)(c1cc(CNc2ccc(F)c(F)c2)c(Cl)cc1Cl)N1CCOCC1 [Compound 10, N-(2,4-dichloro-5-(morpholinosulfonyl)benzyl)-3,4-difluoroaniline]
- ATX inhibitory activity (in words) [1]: greatly deteriorated
- pNP-TMP Inhibition [2]: None

SMILES: O=S(=O)(c1cc(CNc2cc(F)c(F)c(F)c2)c(Cl)cc1Cl)N1CCOCC1 [Compound 11, N-(2,4-dichloro-5-(morpholinosulfonyl)benzyl)-3,4,5-trifluoroaniline]
- IC50 [1]: 396 ± 44.1 nM
- pNP-TMP Inhibition [2]: None

SMILES: O=S(=O)(c1cc(C(=S)Nc2cccc(F)c2)c(Cl)cc1Cl)N1CCOCC1 [Compound 12, 2,4-dichloro-N-(3-fluorophenyl)-5-(morpholinosulfonyl)benzothioamide]
- IC50 [1]: 121.5 ± 1.02 nM
- pNP-TMP Inhibition [2]: None

SMILES: O=S(=O)(c1cc(C(=S)Nc2ccc(F)c(F)c2)c(Cl)cc1Cl)N1CCOCC1 [Compound 13, 2,4-dichloro-N-(3,4-difluorophenyl)-5-(morpholinosulfonyl)benzothioamide]
- IC50 [1]: 67.3 ± 9.73 nM
- pNP-TMP Inhibition [2]: None

SMILES: O=S(=O)(c1cc(C(=S)Nc2cc(F)c(F)c(F)c2)c(Cl)cc1Cl)N1CCOCC1 [Compound 14, 2,4-dichloro-5-(morpholinosulfonyl)-N-(3,4,5-trifluorophenyl)benzothioamide]
- fold IC50 improvement relative to screening hit 918013 [1]: three fold
- IC50 [1]: 35.3 ± 2.66 nM
- pNP-TMP Inhibition [2]: None

SMILES: O=S(=O)(c1cc(C(=S)Nc2cc(Cl)c(F)c(Cl)c2)c(Cl)cc1Cl)N1CCOCC1 [Compound 15, 2,4-dichloro-N-(3,5-dichloro-4-fluorophenyl)-5-(morpholinosulfonyl)-benzothioamide]
- IC50 [1]: 83.1 ± 9.77 nM
- pNP-TMP Inhibition [2]: None

SMILES: O=S(=O)(Nc1cc(S(=O)(=O)N2CCOCC2)c(Cl)cc1Cl)c1cccc(F)c1 [Compound 19]
- IC50 [1]: > 1000 nM
- pNP-TMP Inhibition [2]: None

SMILES: O=S(=O)(c1cc(N(S(=O)(=O)c2cccc(F)c2)S(=O)(=O)c2cccc(F)c2)c(Cl)cc1Cl)N1CCOCC1 [Compound 20]
- IC50 [1]: > 1000 nM
- pNP-TMP Inhibition [2]: None

SMILES: O=S(=O)(Nc1cccc(F)c1)c1cc(S(=O)(=O)N2CCOCC2)c(Cl)cc1Cl [Compound 22, 2,4-dichloro-N-(3-fluorophenyl)-5-(morpholinosulfonyl)benzenesulfonamide]
- IC50 [1]: > 1000 nM
- pNP-TMP Inhibition [2]: None

SMILES: O=S(=O)(Nc1cc(F)c(F)c(F)c1)c1cc(S(=O)(=O)N2CCOCC2)c(Cl)cc1Cl [Compound 23, 2,4-dichloro-5-(morpholinosulfonyl)-N-(3,4,5-trifluorophenyl)benzenesulfonamide]
- IC50 [1]: > 1000 nM
- pNP-TMP Inhibition [2]: None

SMILES: O=C(Nc1cc(F)c(F)c(F)c1)c1cc(NN2CCOCC2)c(Cl)cc1Cl [Compound 25, 2,4-dichloro-5-(morpholinoamino)-N-(3,4,5-trifluorophenyl)benzamide]
- ATX inhibitory activity (in words) [1]: inactive
- IC50 [1]: > 1000 nM
- pNP-TMP Inhibition [2]: None

SMILES: CS(=O)(=O)N(C(=O)c1cc(NN2CCOCC2)c(Cl)cc1Cl)c1cc(F)c(F)c(F)c1 [Compound 26a, 2,4-dichloro-N-(methylsulfonyl)-5-(morpholinoamino)-N-(3,4,5-trifluorophenyl)-benzamide]
- ATX inhibitory activity (in words) [1]: inactive
- IC50 [1]: > 1000 nM
- pNP-TMP Inhibition [2]: None

SMILES: CN1CCN(S(=O)(=O)c2cc(C(=O)Nc3cc(F)c(F)c(F)c3)c(Cl)cc2Cl)CC1 [Compound 28a, 2,4-dichloro-5-((4-methylpiperazin-1-yl)sulfonyl)-N-(3,4,5-trifluorophenyl)-benzamide]
- IC50 [1]: 66 nM and 66.9 nM
- pNP-TMP Inhibition [2]: None

SMILES: CN1CCN(S(=O)(=O)c2cc(C(=O)Nc3cc(Cl)c(F)c(Cl)c3)c(Cl)cc2Cl)CC1 [Compound 28b, 2,4-dichloro-N-(3,5-dichloro-4-fluorophenyl)-5-((4-methylpiperazin-1-yl)sulfonyl)benzamide]
- IC50 [1]: 55 nM and 55.5 nM
- pNP-TMP Inhibition [2]: None

SMILES: CN1CCN(S(=O)(=O)c2cc(C(=S)Nc3cc(Cl)c(F)c(Cl)c3)c(Cl)cc2Cl)CC1 [Compound 29, 2,4-dichloro-N-(3,5-dichloro-4-fluorophenyl)-5-((4-methylpiperazin-1-yl)sulfonyl)-benzothioamide]
- IC50 [1]: 100 ± 8.11 nM
- pNP-TMP Inhibition [2]: None

SMILES: O=C(Nc1cccc(F)c1)c1cc(S(=O)(=O)N2CCOCC2)c(Cl)cc1Cl [Compound 918013, 2,4-dichloro-N-(3-fluorophenyl)-5-(morpholinosulfonyl)benzamide, reference compound]
- IC50 [1]: 117 ± 1.97 nM
- Mechanism ([1]; mechanism of inhibition, FS-3 0 to 10 μM, inhibitor 0, 0.5×IC50 or 2×IC50): Competitive
- pNP-TMP Inhibition [2]: None
